The source of these data is USRE37979E1, “Pyrimidine derivatives and anti-viral agent containing the same as active ingredient thereof” (priority 1989, dated 2003).

The subject of one series is HIV. The series can be described thus: Inhibitory activity for HIV infection (protection of HIV-infected MT-4 cells from death). The note with it: 5 days incubation at 37° C., concentration preventing the death of 50% of the MT-4 cells. It counts as cell-based. The method, then:
Inhibitory activity for HIV infection
(§1) In RPMI 1640 DM culture medium containing 20 mM of Hepes buffer solution, 10% fetal bovine serum and 20 μg/ml of gentamycin, 3×10^4 MT-4 cells (human T cell clone which is destroyed by the infection of HIV) were infected with HIV in an amount of 100 times as large as expected to cause 50% infection of the cells. Immediately thereafter, a predetermined amount of sample was added to the culture medium using 50 mg/ml sample solutions in dimethyl sulfoxide and the cells were cultured at 37° C.
(§2) After 5 days of incubation, the number of existing cells was counted to determine the concentration of the compound for preventing the death of 50% of the MT-4 cells. Separately, MT-4 cells were cultured in the same way as above except that they were not infected with HIV to determine the concentration of the compound at which 50% of the MT-4 cells were destroyed.

A further series has as its system MT-4 cells. Kind of series: Cytotoxicity to MT-4 cells not infected with HIV. The class given is cell-based. As to conditions: 5 days incubation, concentration at which 50% of the MT-4 cells were destroyed. The method, then:
as §1, §2

[1] abbreviates: Human immunodeficiency virus 1, MT4, 120 h.

As usually defined, the IC50 is the concentration at which inhibition is half-maximal. Low values mean higher potency, high ones lower potency.

“1-(4-hydroxybutyl) -6-phenylthiothymine [Compound 31]” yielded an IC50 in the series with HIV of 13 µM. In addition, in the series with MT-4 cells, the “50% cytotoxic concentration to MT-4 cells” value is 249 µM.
Compound “1-(methylthiomethyl)-6-phenylthiothymine [Compound 32]” yielded an IC50 in the series with HIV of 1.2 µM.
Same read-out and setting: with “1-[(2-acetoxyethoxy)methyl]-6-phenylthiothymine [Compound 2]” the figure was 6.7 µM.
“1-[(2-phenylcarbamoyloxyethoxy) methyl]-6-m-tolylthiothymine [Compound 16]”: the IC50 with HIV is 21 µM.
Same read-out and setting: then “1-butyl-5-ethyl-6-phenylthiouracil [Compound 252]”, with 0.016 µM.
Same read-out and setting: with “1-ethoxymethyl-5-ethyl-6-phenylthiouracil [Compound 247]” the figure was 0.016 µM.
For `CC(=O)OCCOCn1c(Sc2ccccc2)c(C)c(=O)[nH]c1=S` [Compound 1, 1-[(2-acetoxyethoxy)methyl]-6-phenylthio-2-thiothymine], the concentration for half-maximal inhibition (IC50) with HIV (setting [1]) was found to be 2.8 µM.
In turn, `COCn1c(Sc2ccccc2)c(C)c(=O)[nH]c1=O` [Compound 22, 1-(methoxymethyl)-6-phenylthiothymine] displayed a 50% inhibitory concentration (IC50) in the series on HIV of 2.1 µM.
`CCOCn1c(Sc2ccccc2)c(CC)c(=O)[nH]c1=S` [Compound 358, 1-ethoxymethyl-5-ethyl-6-phenylthio-2-thiouracil] returned an IC50 in the series on HIV (setting [1]) of 0.026 µM.
Regarding `CCOCn1c(Cc2ccccc2)c(CC)c(=O)[nH]c1=O` [Compound 472, 6-benzyl-1-ethoxymethyl-5-ethyluracil], the 50% inhibitory concentration (IC50) in the series with HIV (setting [1]) turned out to be 0.041 µM.
